Test results taken from patent US20190054060A1 (priority 2016, published 2019).

Key:
[1] = tested on: influenza A(H3N2) infection with pneumonia; details: human, in vivo
[2] = tested on: NIRV mutants E119V, R292K and N294S; details: cited from earlier work

In the case of `CCOC(=O)C1=C[C@@H](OC(CC)CC)[C@H](NC(C)=O)[C@@H](N)C1` [Oseltamivir, ethyl (3R,4R,5S)-5-amino-4-acetamido-3-(pentan-3-yloxy)-cyclohex-1-ene-1-carboxylate], the “Admission to ICU - (%)” value [1] is reported as “(2.7) %”, the “Admission to ICU - no.” value [1] is reported as 3 no and the “Complications: Nosocomial infection - (%)” value [1] is reported as “(5.5) %”. The “Complications: Nosocomial infection - no.” value [1] was 6 no, the “Complications: Ventilator associated pneumonia - (%)” value [1] was “(0.9) %” and the “Complications: Ventilator associated pneumonia - no.” value [1] was 1 no. For the same compound, the “Length of hospitalization (median; IQR)” value [1] was 3, the “Mortality 90-day - (%)” value [1] was “(10) %” and the “Mortality 90-day - no.” value [1] was 11 no. The “Readmission ≤30 days from discharge - (%)” value [1] was “(17.3) %”, the “Readmission ≤30 days from discharge - no.” value [1] was 19 no and the “increase of the 50% inhibitory concentration (IC50) by NIRV mutants” value [2] was greater than 100 fold.
